The record followed here is PubChem BioAssay AID1117319 (Southern Research Institute, 2015).

Molecules are shown by their SMILES. Results filed as inconclusive are left out.

In the assay the target is Virion infectivity factor (Human immunodeficiency virus type 1 group M subtype B (isolate BH10)) + Virion infectivity factor (Human immunodeficiency virus type 1 group M subtype B (isolate BRU/LAI)) + Virion infectivity factor (Human immunodeficiency virus type 1 group M subtype B (isolate PCV12)) + Virion infectivity factor (Human immunodeficiency virus type 1 group M subtype B (isolate HXB2)) + DNA dC->dU-editing enzyme APOBEC-3G (Homo sapiens) (UniProt P69720+P69721+P69722+P69723+Q9HC16). The experiment in a line: HIV-1 Vif–A3G interaction blockers – biochemical, TR-FRET, GST-Vif 1-94, biotin-A3G peptide, dose response retest, primary screen (AID 1117319).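 Further: Vif residues 1-94 fused to GST binding biotinylated APOBEC3G peptide 110-148.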 The note with it: TR-FRET GST-Vif / biotin-A3G peptide binding.
Turning to `O=S(=O)(O)c1cccc2c(N=Nc3ccc(O)c4ncccc34)cccc12`, the 50% inhibitory concentration (IC50) – broadly, the concentration at which inhibition is half-maximal – was 13.6 µM. Consider `Nc1cc(C(=O)O)ccc1N1CCCCC1`, for which the IC50 is 15 µM. Next, `CC1C=CC=CC=CC=CC=CC=CC=CC(OC2OC(C)C(O)C(N)C2O)CC2OC(O)(CC(O)CC(O)C(O)CCC(O)CC(O)CC(=O)OC(C)C(C)C1O)CC(O)C2C(=O)O` (stereo not drawn): 0.87 µM; `O=[N+]([O-])c1ccc(-c2ccc(/C=N/c3c(-c4ccco4)nc4ccccn34)o2)cc1`: 0.26 µM.

`O=C(O)c1cc(N2N=C(C(F)(F)F)/C(=C/C=C/c3ccco3)C2=O)ccc1Cl`: the IC50 is 1.04 µM. As to `O=C(COc1ccccc1Cl)c1ccc[nH]1`, the IC50 is 2.91 µM. Next, `CN1CCc2c(sc3c2c(NCc2ccco2)nc2nnnn23)C1`: 16.2 µM; `O=C1CC(SC(=S)C2CCCC2=O)C(=O)N1` (stereo not drawn): 27.8 µM.

Consider `COc1ccc(OC)c(C2C(C(=O)Nc3ccc(F)cc3)=C(C)Nc3nc(CCCO)nn32)c1` (stereo not drawn), for which the IC50 is 54.6 µM. With `O=C(NN(C(=O)c1ccccc1)c1ccccc1)c1ccccc1` the figure was 70.7 µM; with `O=C(O)Cn1cc(/C=C2\C(=O)NC(=O)N(Cc3ccco3)C2=O)c2ccccc21`, 14.7 µM. For the compound `CSc1ccccc1NC(=O)c1noc2c1CCC2`, the half-maximal inhibitory concentration (IC50) is 18.4 µM.

On to `NC(=O)C1CCN(C2=C(Cl)C(=O)c3ccccc3C2=O)CC1`, for which the IC50 is 2.5 µM. For `O=C(O)CC1OCC=C2CN3CCC45C6=CC(=O)C(=O)C([N+](=O)[O-])=C6NC4C1C2CC35` (stereo not drawn), the IC50 is 16.3 µM.

Regarding `O=C1C2CCCN2C(c2ccc(Cl)cc2)N1c1ccccn1` (stereo not drawn), the IC50 is 84.7 µM. For `O=C(O)c1ccc2c(c1)C1C(Cl)C(Sc3ccccc3[N+](=O)[O-])CC1C(c1cccc([N+](=O)[O-])c1)N2` (stereo not drawn), the IC50 is 11.8 µM. As to `COC(=O)C1=C(C)NC(=O)/C1=C\c1cc(C)n(-c2ccccc2C)c1C`, the IC50 was 14.2 µM. Turning to `Cc1c(NC(=O)c2cc(-c3cccs3)on2)c(=O)n(-c2ccccc2)n1C`, the half-maximal inhibitory concentration (IC50) was 39.9 µM. In the case of `CCC(C)[C@@H](C(=O)Nc1ccc2c(c1)OCO2)N1Cc2ccccc2C1=O` (stereo partly drawn), the IC50 is 98.4 µM.

As to `CCCn1c(CNc2ccccc2O)nc2ccccc21`, the IC50 was 53 µM. With `Cc1cc(C)c2c(c1)[C@@H]1C=CC[C@@H]1[C@H](c1ccc(S(=O)(=O)N3CCOCC3)cc1)N2` the figure was 19.5 µM; with `S=c1[nH]nc(COc2ccc3c(c2)OCO3)n1-c1ccccc1`, 48.3 µM; with `COc1cccc(-c2nn(C)c3sc(C(=O)Nc4ccc5c(c4)OCCO5)cc23)c1`, 51.6 µM. Turning to `C=C(C)C(=O)Nc1cccc(C2=NOC3(C2)C[C@@H](C(N)=O)N(C(=O)c2cc([N+](=O)[O-])cc([N+](=O)[O-])c2)C3)c1` (stereo partly drawn), the IC50 was 4.69 µM. Next, `O=C(Nc1ccc2nc(-c3ccco3)c(-c3ccco3)nc2c1)N1CCCCCC1`: 0.58 µM; `Fc1cccc(-c2cc3nc4c(c(NCc5ccco5)n3n2)CCCC4)c1`: 50.8 µM; `Cc1nc2cc(NC(=O)Nc3ccc(N4CCOCC4)cc3)ccc2n1C`: 99.2 µM. On to `COc1ccc(CCNC(=O)CN2CCCc3ccccc32)cc1OC`, for which the half-inhibitory concentration (IC50) was 91 µM.

For `CCN(CC)c1ccc(C=Nc2ccc(N(C)C)cc2)c(O)c1`, the IC50 was 35.7 µM. Regarding `N#Cc1c(-c2ccco2)c2c([nH]c1=S)CCCC2`, the IC50 was 12.1 µM. For `Oc1ccc(NCc2cccc(OCc3ccc(F)cc3)c2)cc1`, the IC50 is 2.37 µM.

`COc1ccc(NC(=O)CN(C)C(=O)c2cccc(-n3cccc3)c2)cc1`: the IC50 is 14.9 µM. Next, `COC1=C(N)C(=O)c2nc(-c3nc(C(=O)O)c(C)c(-c4ccc(OC)c(OC)c4O)c3N)ccc2C1=O`: 10.8 µM. Next, `Cc1c(NC(=O)CN2CCN(c3ccc(O)cc3)CC2)c(=O)n(-c2ccccc2)n1C`: 10.2 µM; `COc1ccccc1/C=C(/CC(=O)NCc1ccccc1)c1nc2ccccc2s1`: 45.3 µM. With `O=C(C1CCCN1S(=O)(=O)c1cccc2cccnc12)N1CCN(c2ccccc2)CC1` (stereo not drawn) the figure was 40.2 µM; with `CCOC(=O)NC1(NC2CCCCC2)Oc2ccccc2O1`, 7.31 µM; with `CC(C)C1Nc2ccc(C(=O)O)cc2C2C=CCC21` (stereo not drawn), 8.06 µM. `C/C(N)=C(/C#N)C(=O)CSc1nnc(NC(C)C)s1`: the IC50 was 9.7 µM. On to `Cc1cc(C(=O)CCl)c(C)n1-c1c(C)n(C)n(-c2ccccc2)c1=O`, for which the IC50 is 42.8 µM. Turning to `COc1ccc(NC(=O)/C(C#N)=C\c2ccc(Br)o2)cc1`, the IC50 was 6.29 µM. With `COc1cc(-c2ccc(Nc3ccccc3C(=O)O)c(OC)c2)ccc1Nc1ccccc1C(=O)O` the figure was 0.94 µM; with `Cc1cc2nc(C)n(CCCNC(=O)Nc3ccc(F)cc3)c2cc1C`, 47.6 µM; with `O=C1/C(=C\c2ccco2)CCC/C1=C\c1ccco1`, 3.05 µM. Next, `Cc1ccc(-c2nc3s/c(=C\c4ccco4)c(=O)n3n2)cc1`: 27.6 µM; `CC(=O)c1ccc(S(=O)(=O)Nc2cccc(-n3cnnn3)c2)cc1`: 12.1 µM; `COc1ccc2cc(C3C(C#N)=C(N)OC(C)=C3C(C)=O)c(Cl)nc2c1` (stereo not drawn): 19.4 µM.

For `O=C(Nc1cc(Cl)ccn1)C1CCN(S(=O)(=O)c2cccs2)CC1`, the half-inhibitory concentration (IC50) was 56.8 µM. As to `O=C(NCCN1CCN(c2ccccc2)CC1)C1CCN(S(=O)(=O)c2cccc3nonc23)CC1`, the IC50 is 43 µM.

`COc1ccc(S(=O)(=O)Nc2cc(SCC(=O)O)c(O)c3ccccc23)cc1`: the IC50 is 22.1 µM. With `O=C1NC(=O)N(c2ccccc2)C(=O)/C1=C\C=C\c1ccccc1` the figure was 42 µM; with `CCN(CC(=O)Nc1c(F)cccc1F)C(=O)c1cccc(-n2cccc2)c1`, 20.9 µM.

Take `O=C(O)c1ccc2c(c1)C1C=CCC1C(c1ccncc1)N2` (stereo not drawn): the 50% inhibitory concentration (IC50) is 3.85 µM. Next, `COC(=O)Cn1c(CCC(=O)O)ccc1-c1ccccc1`: 12.5 µM; `CCc1ccc(NC(=O)CCNS(=O)(=O)c2cccc3nonc23)cc1`: 53 µM; `CC(=O)N1CCN(c2nc(-c3ccco3)c3c(c2C#N)CC(C)(C)SC3)CC1`: 25.3 µM. With `Cn1cccc1/C=C1\C(=O)NC(=O)N(Cc2ccccc2)C1=O` the figure was 11.2 µM; with `COc1ccc2c(c1)c(=O)oc1cc(OCC(=O)N3CCC(C)CC3)ccc12`, 54.6 µM.

Turning to `Oc1ccc(N=Cc2ccc(OCc3ccccc3)cc2)cc1`, the IC50 was 2.11 µM. Consider `CC1=CC(C)(C)N2C(=O)C(=Nc3ccc(O)cc3)c3cccc1c32`, for which the IC50 is 3.5 µM.

Take `O=C(O)C1OC(Oc2c(-c3ccc(O)c(O)c3)oc3cc(O)cc(O)c3c2=O)C(O)C(O)C1O` (stereo not drawn): the IC50 was 2.7 µM. For the compound `C=CCN1CCc2cccc3c2[C@H]1Cc1ccc(O)c(O)c1-3`, the IC50 is 14.8 µM. As for `Cc1ccc(Nc2ccc(N)cc2S(=O)(=O)O)cc1`, the IC50 was 32 µM.

On to `CCCNC1=C(C)C(=O)C2=C(C1=O)C(COC(N)=O)[C@]1(OC)C3NC3CN21` (stereo partly drawn), for which the IC50 was 8.12 µM. Take `CC(/C=C/c1ccco1)=N\NC(=O)c1cccnc1`: the IC50 is 20.3 µM.

`CN(CCC#N)C(=O)COC(=O)c1c2c(nc3ccccc13)/C(=C\c1ccco1)CC2`: the half-maximal inhibitory concentration (IC50) was 1.66 µM. For the compound `N#Cc1c(NC(=O)CSc2ncnc3sccc23)oc(-c2ccco2)c1-c1ccco1`, the IC50 was 0.95 µM. `COc1ccc(N2CCN(c3nc4ccccc4nc3NS(=O)(=O)c3ccccc3)CC2)cc1`: the IC50 is 66.6 µM.

Take `CCOc1cccc(OCC)c2c(C)[n+](CC3CCCO3)c(C)c1-2` (stereo not drawn): the IC50 is 0.85 µM. Consider `O=C(O)/C(=C/c1ccco1)NC(=O)c1ccccc1`, for which the concentration for half-maximal inhibition (IC50) is 19.4 µM.

As for `CN(C(=S)Nc1cccnc1)c1ccc(O)cc1`, the IC50 is 1.85 µM. With `Cc1cccc(NC(=S)NC(=O)/C=C/c2ccco2)c1` the figure was 17.5 µM; with `COc1cc(/C=C2/C(=O)c3cccc([N+](=O)[O-])c3C2=O)c(Br)cc1O`, 32.2 µM.

As to `CCOCCNC(=O)c1ccccc1C(=O)NCCOCC`, the IC50 is 89.2 µM. On to `CN(Cc1cnc2nc(N)nc(N)c2n1)c1ccc(C(=O)NC(CCC(=O)O)C(=O)O)cc1` (stereo not drawn), for which the 50% inhibitory concentration (IC50) is 49.2 µM.

Take `CNc1ccc(Br)cc(C(=O)/C=C/c2ccc(OC)cc2)c1=O`: the IC50 was 3.53 µM. Next, `CCc1ccc(N2C(=O)NC(=O)/C(=C\C=C\c3ccco3)C2=O)cc1`: 7.09 µM. In the case of `O=[N+]([O-])c1cc2no[n+]([O-])c2cc1N1CCCCC1`, the half-maximal inhibitory concentration (IC50) is 7.67 µM.

For `Nc1ccc(N(CCO)CCO)cc1`, the IC50 is 2.17 µM. With `CN(C)c1ccc(O)c2c1CC1CC3[C@@H](N(C)C)C(=O)C(C(N)=O)=C(O)[C@]3(O)C(=O)C1=C2O` (stereo partly drawn) the figure was 1.07 µM. On to `CCCCNC(=O)c1ccc2nc(-c3ccco3)c(-c3ccco3)nc2c1`, for which the IC50 is 1.19 µM. Next, `O=C(NCc1ccccc1)c1ccc2nc(-c3ccco3)c(-c3ccco3)nc2c1`: 0.48 µM; `CCC1=NN2C(=N)/C(=C\c3cccn3-c3cccc(Cl)c3)C(=O)N=C2S1`: 94.9 µM; `O=C1c2ccccc2CC1Sc1nnc(-c2ccccn2)o1` (stereo not drawn): 98.4 µM. As for `CCN1CCC(=NNC(=O)CC23CC4CC(CC(C4)C2)C3)CC1`, the half-inhibitory concentration (IC50) is 97.5 µM. Take `O=C1CC(=O)N(Cc2ccco2)C(=S)N1`: the IC50 was 2.21 µM. `Cc1ccc(N2C(=O)/C(=C\c3ccco3)SC2=S)cc1`: the IC50 is 7.72 µM. For `c1cncc(-c2nnc3sc(-c4ccco4)nn23)c1`, the IC50 was 28.3 µM. Next, `COc1ccc(-c2nc3oc4cc(OC)ccc4c(=O)c3c(=O)n2Cc2ccco2)cc1`: 98.7 µM; `Cn1cccc1/C=C1/C(=O)NC(=O)N(Cc2ccccc2)C1=O`: 3.33 µM. With `O=S(=O)(c1ccc(NC(=S)N/N=C/c2ccc(O)c(O)c2)cc1)N1CCOCC1`, the IC50 was 7.53 µM.

Take `C=CCn1c(O)c(C(CC)=Nc2ccc(N(C)C)cc2)c(=O)[nH]c1=O`: the IC50 was 57.6 µM. With `COc1ccc(NC(=O)CCCSc2ccccc2)cc1` the figure was 47.3 µM.
